Measured values reported in patent US20250296955A1, “PIN1 TARGETING COMPOUNDS AND DEGRADERS AND METHODS THEREOF” (The Regents of the University of California, priority 2024, published 2025).
Where a SMILES comes first, the peptide text is derived from it. [ ]: non-standard residue; d: D form. The star is where a group is joined. Tyr(3-NO2) = N[C@@H](Cc1ccc(O)c([N+](=O)[O-])c1)C(=O)O; Trp(6-Cl) = N[C@@H](Cc1c[nH]c2cc(Cl)ccc12)C(=O)O; Trp(5-OH) = N[C@@H](Cc1c[nH]c2ccc(O)cc12)C(=O)O; Trp(5-F) = N[C@@H](Cc1c[nH]c2ccc(F)cc12)C(=O)O; Trp(7-Me) = Cc1cccc2c(C[C@H](N)C(=O)O)c[nH]c12; Phe(4-Cl) = N[C@@H](Cc1ccc(Cl)cc1)C(=O)O; Phe(4-F) = N[C@@H](Cc1ccc(F)cc1)C(=O)O; 4Pal = N[C@@H](Cc1ccncc1)C(=O)O; Pip = O=C(O)[C@@H]1CCCCN1; ClAc = O=C(CCl)*

What was measured:
Pin1 [1] = target: T1, Pin1 (Homo sapiens, UniProt Q13526); assay: DELFIA displacement assay (displacement of biotinylated D-peptide from 6His-Pin1); assay type: binding; design: human Pin1 (residues 1-163); made in house; host or cells: E. coli BL21 (DE3) gold pLysS
Text: (§1) Important to the success of structure activity relations studies, robust biochemical, biophysical, and cell-based assays were implemented that enabled rapid and iterative evaluations of test Pin1 targeting agents. First, the DELFIA (Dissociation-enhanced lanthanide fluorescent immunoassay) assay platform was used to derive a robust heterogeneous assay to monitor the ability of test agents to displace the binding between Pin1 and the D-Peptide (Table 1), which was obtained in a biotinylated form (FIG. 10). […] Second, for an orthogonal biophysical assay denaturation thermal shift measurements were used. Pin1 was incubated with vehicle control (buffer with 1% DMSO), or test agents at protein: ligand ratio of 1:2 (20 μM protein-40 μM compound) for 10 min at 10° C. in the presence of the fluorescent dye SYPRO Orange. The samples were gradually exposed to increasing temperature (linear gradient from 10° C. to 95° C.), causing the protein to unfold. This unfolding allowed the fluorescent dye to bind to the protein's exposed hydrophobic residues, resulting in an increase in fluorescence. The thermal shift assay measures the protein's melting temperature (Tm), which is the temperature at which the protein denatures by 50%. Ligands can affect a protein target to thermal denaturation, which could manifest in a positive or negative shift in the protein denaturation temperature (ΔTm) (Bai N, Roder H, Dickson A, & Karanicolas J (2019) Scientific Reports 9; and Kranz J K & Schalk-Hihi C (2011) Fragment-Based Drug Design: Tools, Practical Approaches, and Examples 493:277-298). Using these two assays, a series of commercially available Pin1 inhibitors were profiled (Table 1). The non-covalent agent D-peptide resulted only moderately active, with an IC50 value of ˜3 μM that closely resembled the dissociation constant for this agent determined via isothermal titration calorimetry, and the ˜ 3 μM IC50 value as reported by a fluorescence polarization assay (Pinch B J, et al. (2020) Nat Chem Biol 16(9):979-987). […] (Table 1) was observed.
For the reported covalent agents such as sulfopin (Dubiella C, et al. (2021) Nat Chem Biol 17(9):954-963), BJP-07-017-3 (Pinch B J, et al. (2020) Nat Chem Biol 16(9):979-987), or KPT-6566 (Campaner E, et al. (2017) Nat Commun 8:15772), a 6-h pre-incubation period was included in the DELFIA assay to allow the covalent reaction to take place. For those agents, IC50 values that fell in the low nanomolar range were observed, consistent with what was reported previously for those compounds. […] To make those determinations in a broader panel of cancer cell lines three pancreatic cancer cell lines, BxPC3, MIA-PaCa-2, and PANC-1, the breast cancer cell line MDA-MB-231, the prostate cancer cell line PC3, and the non-small cell lung cancer cell line A549 were chosen. Each cell line represents various states of KRAS activating mutations (for example BxPC3 is wt-KRAS, while MIAPaCa2 carries the KRAS(G12C) mutation, and the PANC-1 the KRAS(G12D) (Miquel M, Zhang S, & Pilarsky C (2021) Front Cell Dev Biol 9:748631), A549 is KRAS(G12S) (Wang H, et al. (2019) EBioMedicine 49:106-117), MDA-MB-231 is KRAS(G13D) (Kim R K, et al. (2015) Exp Mol Med 47(1):e137), PC3 is wt-KRAS (Bouali S, et al. (2009) Oncol Rep 21(3):731-735). Pin1 protein levels in these cell lines were established using a specific Pin1 antibody in western blot analyses (FIG. 1A). The data confirmed that all these selected human cancer cell lines expressed a significant level of Pin1 (FIG. 1A).
Each well of 96-well streptavidin-coated plates (PerkinElmer) was incubated with 100 μL of 200 nM biotinylated D-peptide for 2 h and washed 3 times with a wash solution (PerkinElmer). Subsequently, a mixture containing Pin1, and a serial dilution of the test compounds were pre-incubated for 6 h. Eu-N1-labeled anti-6x-His antibody (PerkinElmer, 1:2000) was then added to this mixture and further incubated in the biotinylated D-peptide-bound plates for another 2 h. […]

Pin1 [2] = target: T1, Pin1; assay: Denaturation thermal shift assay (SYPRO Orange); assay type: binding; design: human Pin1 (residues 1-163); made in house; host or cells: E. coli BL21 (DE3) gold pLysS
Text: as §1
Thermal shift assays for Pin1 alone and in the presence of the inhibitors were obtained with a BioRad CFX Connect Real-Time PCR Detection System. Each data point was collected in quadruplicate. Each sample was prepared using buffer 50 mM Phosphate pH 7.5, 150 mM NaCl, 1% DMSO. Protein: ligand ratio used was 1:2 (20 μM protein-40 μM compound), and SYPRO Orange was used. Incubation of the Pin1 protein with the compounds was performed at 10° C. for 10 min. Samples were then heated from 10 to 95° C. with heating increments of 0.05° C., over 30 min. Fluorescence intensity was measured within the excitation/emission ranges 470-505/540-700 nm.

[3] = Table 3, two peaks observed, likely incomplete complex formation
[4] = Table 3, single transition, ± SE of four replicates
[5] = Table 4, single transition, ± SE of four replicates

T1 sequence (Q13526 whole entry, the tested form may be a part): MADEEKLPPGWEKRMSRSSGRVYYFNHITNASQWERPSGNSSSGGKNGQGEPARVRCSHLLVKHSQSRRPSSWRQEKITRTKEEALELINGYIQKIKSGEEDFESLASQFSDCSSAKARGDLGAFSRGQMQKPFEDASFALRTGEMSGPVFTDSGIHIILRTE

Row | SMILES | IC50 (Pin1 [1]; Table 3, ± SD from duplicates) [nM] | ΔTm (° C.) (Pin1 [2]; [4]) [°C] | IC50 (Pin1 [1]; Table 4, ± SD from duplicates) [nM] | ΔTm (° C.) (Pin1 [2]; [5]) | other results
1 | NC(=O)[C@H](Cc1c[nH]c2ccccc12)NC(=O)[C@@H]1CCCCN1C(=O)[C@H](Cc1c[nH]c2ccccc12)NC(=O)CCl [158G9] (HELM PEPTIDE1{[O=C(CCl)[*:2]].W.[O=C([C@@H]1CCCCN1[*:1])[*:2]].W.[am]}$$$$V2.0) | 44 ± 8 | −9.42 ± 0.18 | – | – | IC50 (Pin1 [1]; running text and figure legends): 43 nM
2 | NC(=O)[C@H](Cc1c[nH]c2ccccc12)NC(=O)[C@@H]1CCCCN1C(=O)[C@H](Cc1ccc(Cl)cc1)NC(=O)CCl [158G12] (ClAc-[Phe(4-Cl)]-[Pip]-Trp-NH2) | 527 ± 38 | – | – | – | ΔTm (° C.) (Pin1 [2]; Table 5, only one transition given): −12.19 ± 0.07 °C
3 | NC(=O)[C@H](Cc1c[nH]c2ccccc12)NC(=O)[C@@H]1CCCCN1C(=O)[C@H](Cc1ccncc1)NC(=O)CCl [158H1] (ClAc-[4Pal]-[Pip]-Trp-NH2) | 99 ± 4 | −9.18 ± 0.07 | – | – | –
4 | NC(=O)[C@H](Cc1c[nH]c2ccccc12)NC(=O)[C@@H]1CCCCN1C(=O)[C@H](Cc1c[nH]c2ccc(O)cc12)NC(=O)CCl [158H3] (ClAc-[Trp(5-OH)]-[Pip]-Trp-NH2) | – | – | 56 ± 5 | −6.56 ± 0.04 °C | –
5 | COc1ccc(C[C@H](NC(=O)CCl)C(=O)N2CCCC[C@H]2C(=O)N[C@@H](Cc2c[nH]c3ccccc23)C(N)=O)cc1 [158H5] (ClAc-Tyr(Me)-[Pip]-Trp-NH2) | 82.4 ± 0.4 | −9.82 ± 0.08 | – | – | –
6 | Cc1cccc2c(C[C@H](NC(=O)CCl)C(=O)N3CCCC[C@H]3C(=O)N[C@@H](Cc3c[nH]c4ccccc34)C(N)=O)c[nH]c12 [158H7] (ClAc-[Trp(7-Me)]-[Pip]-Trp-NH2) | – | – | 91 ± 9 | −10.11 ± 0.20 °C | –
7 | Cc1cccc2c(C[C@H](NC(=O)[C@@H]3CCCCN3C(=O)[C@@H]3Cc4c([nH]c5ccccc45)CN3C(=O)CCl)C(N)=O)c[nH]c12 [164A11] | – | – | – | +10.45 ± 0.07 °C | –

Further lines, with some results ahead:

Row | IC50 (Pin1 [1]; Table 3, ± SD from duplicates) [nM] | ΔTm (° C.) (Pin1 [2]; [4]) [°C] | IC50 (Pin1 [1]; Table 4, ± SD from duplicates) [nM] | ΔTm (° C.) (Pin1 [2]; [5]) | SMILES | other results
8 | 1040 ± 316 | – | – | – | O=C(CCl)N[C@@H](Cc1ccccc1)C(=O)N1CCCC[C@H]1C(=O)NCCc1c[nH]c2ccc(F)cc12 [158G7] | share of first thermal shift peak (Pin1 [2]; Table 3, percentage in brackets after first ΔTm): 50%; share of second thermal shift peak (Pin1 [2]; Table 3, percentage in brackets after second ΔTm): 50%; ΔTm (° C.), first of two peaks (Pin1 [2]; [3]): −0.45 ± 0.15 °C; ΔTm (° C.), second printed of two peaks (Pin1 [2]; [3]): −14.28 ± 0.28 °C
9 | 183 ± 12 | −10.44 ± 0.17 | – | – | NC(=O)[C@H](Cc1c[nH]c2ccccc12)NC(=O)[C@@H]1CCCCN1C(=O)[C@H](Cc1ccc(O)c([N+](=O)[O-])c1)NC(=O)CCl [158G10] (ClAc-[Tyr(3-NO2)]-[Pip]-Trp-NH2) | –
10 | 146 ± 12 | −10.57 ± 0.11 | – | – | NC(=O)[C@H](Cc1c[nH]c2ccccc12)NC(=O)[C@@H]1CCCCN1C(=O)[C@H](Cc1ccc(F)cc1)NC(=O)CCl [158G11] (ClAc-[Phe(4-F)]-[Pip]-Trp-NH2) | –
11 | – | – | 43.5 ± 0.8 | −9.81 ± 0.16 °C | NC(=O)[C@H](Cc1c[nH]c2ccccc12)NC(=O)[C@@H]1CCCCN1C(=O)[C@H](Cc1c[nH]c2ccc(F)cc12)NC(=O)CCl [158H8] (ClAc-[Trp(5-F)]-[Pip]-Trp-NH2) | –
12 | – | – | 31 ± 1 | −9.21 ± 0.08 °C | NC(=O)[C@H](Cc1c[nH]c2cc(Cl)ccc12)NC(=O)[C@@H]1CCCCN1C(=O)[C@H](Cc1c[nH]c2ccccc12)NC(=O)CCl [158H12] (ClAc-Trp-[Pip]-[Trp(6-Cl)]-NH2) | –
